ChEMBL document CHEMBL4270566, “New aziridine-based inhibitors of cathepsin L-like cysteine proteases with selectivity for the Leishmania cysteine protease LmCPB2.8” (Eur J Med Chem, 2018)
Activity calls are given as the source filed them. No cut-off for these calls is given here.

Legend:
[1] = test system: Leishmania major; test: Antileishmanial activity against Leishmania major promastigotes; assay type: functional, organism-based
[2] = test system: Leishmania major; test: Antileishmanial activity against luciferase-fused Leishmania major amastigotes infected in BMDM after 24 hrs by luminescence assay; assay type: functional, organism-based
[3] = molecular target: T1, Falcipain 2 (Plasmodium falciparum, UniProt Q9N6S8); test: Inhibition of Plasmodium falciparum falcipain 2 using Z-Phe-Arg-AMC as substrate by fluorometric assay
T1 sequence (Q9N6S8 whole entry): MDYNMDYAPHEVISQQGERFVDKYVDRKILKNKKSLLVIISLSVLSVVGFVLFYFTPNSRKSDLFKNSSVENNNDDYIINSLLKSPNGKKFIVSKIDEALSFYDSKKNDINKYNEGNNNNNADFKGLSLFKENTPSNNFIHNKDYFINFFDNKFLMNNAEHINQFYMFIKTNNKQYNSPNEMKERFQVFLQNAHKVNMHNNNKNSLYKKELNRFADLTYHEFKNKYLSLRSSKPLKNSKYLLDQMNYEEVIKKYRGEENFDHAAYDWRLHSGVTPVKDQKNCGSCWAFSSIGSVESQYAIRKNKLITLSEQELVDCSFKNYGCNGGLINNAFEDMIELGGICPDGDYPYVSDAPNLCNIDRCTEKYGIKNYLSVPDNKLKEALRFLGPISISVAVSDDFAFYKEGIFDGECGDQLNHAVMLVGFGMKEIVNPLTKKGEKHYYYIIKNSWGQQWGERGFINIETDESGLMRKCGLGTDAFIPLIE

[4] = molecular target: T2, Procathepsin L (Homo sapiens, UniProt P07711); test: Inhibition of human cathepsin-L using Z-Phe-Arg-AMC as substrate by fluorometric assay
Target sequence in this assay (P07711 whole entry): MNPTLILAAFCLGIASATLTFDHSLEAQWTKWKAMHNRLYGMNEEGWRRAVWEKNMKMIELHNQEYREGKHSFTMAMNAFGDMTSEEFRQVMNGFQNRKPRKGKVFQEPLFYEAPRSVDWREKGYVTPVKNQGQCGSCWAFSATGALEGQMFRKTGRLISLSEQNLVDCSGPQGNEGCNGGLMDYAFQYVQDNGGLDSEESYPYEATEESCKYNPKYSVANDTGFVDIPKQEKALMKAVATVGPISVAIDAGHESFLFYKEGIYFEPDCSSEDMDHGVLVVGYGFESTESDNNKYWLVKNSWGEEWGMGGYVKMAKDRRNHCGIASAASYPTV

[5] = molecular target: Cathepsin B (Homo sapiens, UniProt P07858); test: Inhibition of human cathepsin-B at 20 uM using Z-Phe-Arg-AMC as substrate by fluorometric assay relative to control
[6] = molecular target: Cruzipain (Trypanosoma cruzi, UniProt P25779); test: Inhibition of Trypanosoma cruzi cruzain using Z-Phe-Arg-AMC as substrate by fluorometric assay
Cruzipain, sequence (P25779 whole entry): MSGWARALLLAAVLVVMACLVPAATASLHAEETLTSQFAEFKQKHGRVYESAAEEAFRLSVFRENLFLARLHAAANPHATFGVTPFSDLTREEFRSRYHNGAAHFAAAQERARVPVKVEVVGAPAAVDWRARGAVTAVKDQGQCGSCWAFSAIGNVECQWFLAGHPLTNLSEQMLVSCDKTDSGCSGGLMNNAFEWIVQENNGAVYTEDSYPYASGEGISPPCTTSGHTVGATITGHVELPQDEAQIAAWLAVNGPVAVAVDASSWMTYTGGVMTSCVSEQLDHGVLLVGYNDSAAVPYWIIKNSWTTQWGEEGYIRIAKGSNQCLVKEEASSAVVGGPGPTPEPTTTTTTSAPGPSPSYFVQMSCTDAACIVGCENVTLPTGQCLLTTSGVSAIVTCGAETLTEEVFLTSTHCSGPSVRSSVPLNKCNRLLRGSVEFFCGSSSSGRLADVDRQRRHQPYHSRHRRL

[7] = Inhibition of Leishmania mexicana cathepsin L-like protease CPB2.8 using Z-Phe-Arg-AMC as substrate by fluorometric assay
[8] = test system: J774; test: Cytotoxicity against mouse J774 cells; assay type: cell-based
[9] = molecular target: T2, Procathepsin L; test: Inhibition of human cathepsin-L at 20 uM using Z-Phe-Arg-AMC as substrate by fluorometric assay relative to control
Target sequence in this assay (P07711 114-333 limits assumed): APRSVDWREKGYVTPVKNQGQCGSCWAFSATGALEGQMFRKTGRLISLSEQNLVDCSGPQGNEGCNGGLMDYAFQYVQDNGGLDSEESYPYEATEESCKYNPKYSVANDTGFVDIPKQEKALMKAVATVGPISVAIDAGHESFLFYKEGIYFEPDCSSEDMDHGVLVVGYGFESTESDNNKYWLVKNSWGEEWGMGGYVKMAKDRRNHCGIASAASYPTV

[10] = molecular target: T3, Falcipain 2 (Plasmodium falciparum) (UniProt Q9N6S8); test: Inhibition of Plasmodium falciparum falcipain 2 at 20 uM using Z-Phe-Arg-AMC as substrate by fluorometric assay relative to control
T3 sequence (whole entry): T1 sequence (Q9N6S8 whole entry)

[11] = molecular target: Rhodesain (Trypanosoma brucei rhodesiense, UniProt Q95PM0); test: Inhibition of Trypanosoma brucei rhodesiense rhodesain using Z-Phe-Arg-AMC as substrate by fluorometric assay
Rhodesain, sequence (Q95PM0 whole entry): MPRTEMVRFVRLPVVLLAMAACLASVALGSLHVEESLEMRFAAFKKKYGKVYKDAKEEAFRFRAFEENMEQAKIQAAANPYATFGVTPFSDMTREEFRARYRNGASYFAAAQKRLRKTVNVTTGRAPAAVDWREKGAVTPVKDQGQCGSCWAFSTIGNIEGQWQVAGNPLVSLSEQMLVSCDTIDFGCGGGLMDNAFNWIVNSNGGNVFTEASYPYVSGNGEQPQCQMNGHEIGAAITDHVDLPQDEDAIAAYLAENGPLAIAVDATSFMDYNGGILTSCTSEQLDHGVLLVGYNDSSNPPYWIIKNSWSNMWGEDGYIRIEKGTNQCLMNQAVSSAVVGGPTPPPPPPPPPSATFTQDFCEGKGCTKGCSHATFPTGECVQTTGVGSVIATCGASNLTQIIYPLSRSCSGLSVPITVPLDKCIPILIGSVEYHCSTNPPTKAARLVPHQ

[12] = test system: Leishmania major; test: Antileishmanial activity against Leishmania major promastigotes at 20 uM; assay type: functional, organism-based
[13] = molecular target: Rhodesain (Trypanosoma brucei rhodesiense) (UniProt Q95PM0); test: Inhibition of Trypanosoma brucei rhodesiense rhodesain at 20 uM using Z-Phe-Arg-AMC as substrate by fluorometric assay relative to control
Rhodesain (Trypanosoma brucei rhodesiense), sequence (Q95PM0 1-450): as the sequence (Q95PM0 whole entry) above

[14] = molecular target: Cruzipain (Trypanosoma cruzi) (UniProt P25779); test: Inhibition of Trypanosoma cruzi cruzain at 20 uM using Z-Phe-Arg-AMC as substrate by fluorometric assay relative to control
Cruzipain (Trypanosoma cruzi), sequence (P25779 123-467 limits assumed): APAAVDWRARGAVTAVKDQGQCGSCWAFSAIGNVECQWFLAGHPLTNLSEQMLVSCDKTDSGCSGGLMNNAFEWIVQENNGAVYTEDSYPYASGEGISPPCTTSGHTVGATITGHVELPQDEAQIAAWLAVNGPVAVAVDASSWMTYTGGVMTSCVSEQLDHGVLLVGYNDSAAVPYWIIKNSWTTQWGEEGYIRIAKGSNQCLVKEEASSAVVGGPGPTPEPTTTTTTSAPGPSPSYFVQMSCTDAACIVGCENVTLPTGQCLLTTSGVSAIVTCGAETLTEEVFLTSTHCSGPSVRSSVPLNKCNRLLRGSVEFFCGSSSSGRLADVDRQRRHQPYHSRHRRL

[15] = test system: Leishmania mexicana; test: Inhibition of Leishmania mexicana cathepsin L-like protease CPB2.8 at 20 uM using Z-Phe-Arg-AMC as substrate by fluorometric assay relative to control
[16] = test system: Leishmania mexicana; test: Inhibition of Leishmania mexicana cathepsin L-like protease CPB2.8 assessed as second order inactivation rate constant using Z-Phe-Arg-AMC as substrate by fluorometric assay
[17] = molecular target: Rhodesain (Trypanosoma brucei rhodesiense) (UniProt Q95PM0); test: Inhibition of Trypanosoma brucei rhodesiense rhodesain assessed as second order inactivation rate constant using Z-Phe-Arg-AMC as substrate by fluorometric assay
[18] = molecular target: T3, Falcipain 2 (Plasmodium falciparum); test: Inhibition of Plasmodium falciparum falcipain 2 assessed as second order inactivation rate constant using Z-Phe-Arg-AMC as substrate by fluorometric assay

## CC(C)C[C@H](NC(=O)OC(C)(C)C)C(=O)N1CCC[C@@H]1C(=O)N1[C@H](C(=O)OCc2ccccc2)[C@H]1C(=O)OCc1ccccc1
[1]
  EC50: 39600 nM
[2]
  EC50: 2200 nM
[3]
  Ki: 43900 nM
[4]
  Ki: 6000 nM
[5]
  inhibition: inactive
[6]
  Ki: 900 nM
[7]
  Ki: 1700 nM

## CC(C)C[C@@H](NC(=O)OC(C)(C)C)C(=O)N1CCC[C@H]1C(=O)N1[C@H](C(=O)OCc2ccccc2)[C@H]1C(=O)OCc1ccccc1
[1]
  EC50: 35400 nM
[2]
  EC50: 2700 nM
[3]
  Ki: 28300 nM
[4]
  Ki: 4000 nM
[5]
  inhibition: inactive
[6]
  Ki: 790 nM
[7]
  Ki: 2100 nM

## CC[C@H](C)[C@H](NC(=O)OC(C)(C)C)C(=O)N1CCC[C@@H]1C(=O)N1[C@@H](C(=O)OCc2ccccc2)[C@@H]1C(=O)OCc1ccccc1
[1]
  EC50: 9800 nM
[2]
  EC50: 2000 nM
[8]
  Activity: > 250 µM

## CC(C)C[C@@H](NC(=O)OC(C)(C)C)C(=O)N1CCC[C@H]1C(=O)N1[C@@H](C(=O)OCc2ccccc2)[C@@H]1C(=O)OCc1ccccc1
[9]
  inhibition: inactive
[1]
  EC50: 95000 nM
[10]
  inhibition: inactive
[5]
  inhibition: inactive
[6]
  Ki: 30900 nM
[7]
  Ki: 3400 nM
[11]
  Ki: 15200 nM

## CC(C)[C@H](NC(=O)OC(C)(C)C)C(=O)N1CCC[C@@H]1C(=O)N1[C@@H](C(=O)OCc2ccccc2)[C@@H]1C(=O)OCc1ccccc1
[1]
  EC50: 34800 nM
[2]
  EC50: 2200 nM
[8]
  Activity: > 250 µM

## CC(C)C[C@@H](NC(=O)OC(C)(C)C)C(=O)N1CCC[C@@H]1C(=O)N1[C@H](C(=O)OCc2ccccc2)[C@H]1C(=O)OCc1ccccc1
[9]
  inhibition: inactive
[10]
  inhibition: inactive
[5]
  inhibition: inactive
[12]
  Activity: inactive

## CC(C)C[C@H](NC(=O)OC(C)(C)C)C(=O)N1CCC[C@H]1C(=O)N1[C@H](C(=O)OCc2ccccc2)[C@H]1C(=O)OCc1ccccc1
[9]
  inhibition: inactive
[10]
  inhibition: inactive
[5]
  inhibition: inactive
[12]
  Activity: inactive

## CC(C)C[C@H](NC(=O)OC(C)(C)C)C(=O)N1CCC[C@@H]1C(=O)N1C(C(=O)OCC2CCCCC2)C1C(=O)OCC1CCCCC1 (mixture of isomers)
[9]
  inhibition: < 50%
[10]
  inhibition: < 50%
[13]
  inhibition: < 50%
[14]
  inhibition: < 50%
[5]
  inhibition: inactive
[7]
  Ki: 770 nM
[15]
  inhibition: > 50%

## CC(C)C[C@H](NC(=O)OC(C)(C)C)C(=O)N1CCC[C@@H]1C(=O)N1C(C(=O)O)C1C(=O)OCCc1ccccc1 (mixture of isomers)
[9]
  inhibition: < 50%
[3]
  Ki: 1260 nM
[16]
  K: 3180 M⁻¹ s⁻¹
[10]
  inhibition: > 50%
[13]
  inhibition: > 50%
[14]
  inhibition: < 50%
[17]
  K: 2970 M⁻¹ s⁻¹
[5]
  inhibition: inactive
[18]
  K: 185 M⁻¹ s⁻¹
[7]
  Ki: 440 nM
[11]
  Ki: 160 nM
[15]
  inhibition: > 50%

## CC(C)C[C@H](NC(=O)OC(C)(C)C)C(=O)N1CCC[C@@H]1C(=O)N1C(C(=O)OCCCc2ccccc2)C1C(=O)OCCCc1ccccc1 (mixture of isomers)
[9]
  inhibition: < 50%
[10]
  inhibition: < 50%
[13]
  inhibition: < 50%
[14]
  inhibition: < 50%
[5]
  inhibition: inactive
[7]
  Ki: 900 nM
[15]
  inhibition: > 50%

## CC(C)C[C@H](NC(=O)OC(C)(C)C)C(=O)N1CCC[C@@H]1C(=O)N1C(C(=O)OCc2ccccc2)C1C(=O)OCc1ccc2ccccc2c1 (mixture of isomers)
[9]
  inhibition: < 50%
[10]
  inhibition: < 50%
[13]
  inhibition: < 50%
[14]
  inhibition: < 50%
[5]
  inhibition: inactive
[7]
  Ki: 800 nM
[15]
  inhibition: > 50%

## CC(C)C[C@H](NC(=O)OC(C)(C)C)C(=O)N1CCC[C@@H]1C(=O)N1C(C(=O)OCc2ccccc2)C1C(=O)OCC1CCCCC1 (mixture of isomers)
[9]
  inhibition: < 50%
[10]
  inhibition: < 50%
[13]
  inhibition: < 50%
[14]
  inhibition: > 50%
[5]
  inhibition: inactive
[6]
  Ki: 7600 nM
[7]
  Ki: 1800 nM
[15]
  inhibition: > 50%

## CC(C)C[C@H](NC(=O)OC(C)(C)C)C(=O)N1CCC[C@@H]1C(=O)N1C(C(=O)OCCCc2ccccc2)C1C(=O)OCc1ccccc1 (mixture of isomers)
[9]
  inhibition: < 50%
[10]
  inhibition: < 50%
[13]
  inhibition: < 50%
[14]
  inhibition: < 50%
[5]
  inhibition: inactive
[7]
  Ki: 1360 nM
[15]
  inhibition: > 50%

## CC(C)C[C@H](NC(=O)OC(C)(C)C)C(=O)N1CCC[C@@H]1C(=O)N1C(C(=O)OCCc2ccccc2)C1C(=O)OCCc1ccccc1 (mixture of isomers)
[9]
  inhibition: < 50%
[10]
  inhibition: < 50%
[13]
  inhibition: < 50%
[14]
  inhibition: > 50%
[5]
  inhibition: inactive
[6]
  Ki: 7700 nM
[7]
  Ki: 1600 nM
[15]
  inhibition: > 50%

## CC(C)C[C@H](NC(=O)OC(C)(C)C)C(=O)N1CCC[C@@H]1C(=O)N1C(C(=O)OCc2ccccc2)C1C(=O)OCc1ccccc1 (mixture of isomers)
[9]
  inhibition: > 50%
[4]
  Ki: 12000 nM
[10]
  inhibition: > 50%
[13]
  inhibition: > 50%
[14]
  inhibition: > 50%
[5]
  inhibition: inactive
[6]
  Ki: 1800 nM
[7]
  Ki: 2800 nM
[11]
  Ki: 1500 nM
[15]
  inhibition: > 50%

## CC(C)C[C@H](NC(=O)OC(C)(C)C)C(=O)N1CCC[C@@H]1C(=O)N1C(C(=O)O)C1C(=O)OCCCc1ccccc1 (mixture of isomers)
[9]
  inhibition: < 50%
[3]
  Ki: 28600 nM
[10]
  inhibition: > 50%
[13]
  inhibition: < 50%
[14]
  inhibition: < 50%
[5]
  inhibition: inactive
[18]
  K: 55.8 M⁻¹ s⁻¹
[15]
  inhibition: < 50%

## CC(C)C[C@H](NC(=O)OC(C)(C)C)C(=O)N1CCC[C@@H]1C(=O)N1C(C(=O)OCCc2ccccc2)C1C(=O)OCc1ccccc1 (mixture of isomers)
[9]
  inhibition: < 50%
[10]
  inhibition: < 50%
[13]
  inhibition: < 50%
[14]
  inhibition: > 50%
[5]
  inhibition: inactive
[6]
  Ki: 5500 nM
[7]
  Ki: 1920 nM
[15]
  inhibition: > 50%

## CC(C)C[C@H](NC(=O)OC(C)(C)C)C(=O)N1CCC[C@@H]1C(=O)N1C(C(=O)O)C1C(=O)OC(C)(C)C (mixture of isomers)
[9]
  inhibition: < 50%
[10]
  inhibition: < 50%
[13]
  inhibition: < 50%
[14]
  inhibition: < 50%
[5]
  inhibition: inactive
[15]
  inhibition: < 50%

## CC(C)C[C@H](NC(=O)OC(C)(C)C)C(=O)N1CCC[C@@H]1C(=O)N1C(C(=O)OCc2ccccc2)C1C(=O)OC(C)(C)C (mixture of isomers)
[9]
  inhibition: < 50%
[10]
  inhibition: < 50%
[13]
  inhibition: < 50%
[14]
  inhibition: < 50%
[5]
  inhibition: inactive
[15]
  inhibition: < 50%

## CCOC(=O)C1C(C(=O)O)N1C(=O)[C@H]1CCCN1C(=O)[C@H](CC(C)C)NC(=O)OC(C)(C)C (mixture of isomers)
[9]
  inhibition: < 50%
[10]
  inhibition: < 50%
[13]
  inhibition: < 50%
[14]
  inhibition: < 50%
[5]
  inhibition: inactive
[15]
  inhibition: < 50%

## CCOC(=O)C1C(C(=O)OCc2ccccc2)N1C(=O)[C@H]1CCCN1C(=O)[C@H](CC(C)C)NC(=O)OC(C)(C)C (mixture of isomers)
[9]
  inhibition: < 50%
[10]
  inhibition: < 50%
[13]
  inhibition: < 50%
[14]
  inhibition: < 50%
[5]
  inhibition: inactive
[15]
  inhibition: < 50%
